Holding throughout (assay): Bliss excess, mean over the matrix (fraction); higher = more synergy
Experiment [1] has as its system VAL (B-Cell Non-Hodgkin's Lymphoma). Summed up: (§1)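 After 24 hours at 37°C and 5% CO2 in 1536-well plates, cells in DMEM/F12 or RPMI plus 10% FBS received two-drug dose matrices for 72 hours. Viability came from CellTiter-Glo 2.0 luminescence and was scaled as inhibition, anchored at 0 by vehicle wells and at 1 by blank wells. Combination Emax is taken as the second-highest inhibition in the matrix, and Bliss excess as the observed combination effect less EA + EB − EA·EB, with EA and EB the single-agent effects.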

Experiment [2] deals with MFE-280 (Endometrial Carcinoma). Summed up:
as §1

The test system of experiment [3] is PSN1 (Pancreatic Carcinoma). In outline: as §1
Experiment [4] relates to RERF-GC-1B (Gastric Carcinoma). Summed up: as §1
Experiment [5] deals with NCI-H446 (Small Cell Lung Carcinoma). In outline: as §1
A further experiment concerns SF268 (Low Grade Glioma). In outline: as §1
The next experiment deals with GB-1 (Glioblastoma). Summed up:
as §1

The subject of experiment [6] is OVMIU (Ovarian Carcinoma). Summed up: as §1
Experiment [7] deals with COLO-680N (Esophageal Squamous Cell Carcinoma). In outline: as §1
Experiment [8] has as its system LB996-RCC (Kidney Carcinoma). In outline: as §1
For the next experiment, the system named is WM278 (Melanoma). In outline:
as §1

Experiment [9] deals with LK-2 (Squamous Cell Lung Carcinoma). In outline:
as §1

In the next experiment the test system is LN-229 (Glioblastoma). In outline:
as §1

The test system of experiment [10] is SK-PN-DW (Other Solid Carcinomas). In outline:
as §1

Experiment [11] relates to TE-8 (Esophageal Squamous Cell Carcinoma). Summed up:
as §1

Experiment [12] deals with SHP-77 (Small Cell Lung Carcinoma). In outline:
as §1

In experiment [13] the test system is OPM-2 (Plasma Cell Myeloma). In outline: as §1
In experiment [14] the test system is OAW-42 (Ovarian Carcinoma). In outline:
as §1

Experiment [15] deals with FADU (Head and Neck Carcinoma). In outline: as §1
Experiment [16] relates to L-1236 (Hodgkin's Lymphoma). Summed up: as §1

The source of these data is the supplement of paper PMC11061612.

For `COc1nnc2ccc(N3CCC(c4ccc(OCCN5CCN(C)C(=O)[C@H]5C)cc4)CC3)nn12` [AZD5153] + Cc1c2c(nn1C)CSCc1cc(n(C)n1)CSc1cc(c3ccccc3c1)OCCCc1c(C(=O)O)n(C)c3c-2c(Cl)ccc13 [AZD5991] (first compound max 1 µM, 7x7, partner max 1 µM), the Bliss excess in experiment [1] was -0.112; in [2] it was -0.0473; in experiment [3] it was -0.0263; in [4] it was 0.0602; in experiment [5] it was 0.0153; in the experiment on SF268 (Low Grade Glioma), 0.0097. Also, the Bliss excess is -0.0513 with GB-1 (Glioblastoma); -0.0072 in experiment [6]; -0.0205 in experiment [7]; 0.0015 in experiment [8]; -0.0929 with WM278 (Melanoma); 0.0184 in experiment [9]. Further, the Bliss excess is 0.0175 in the experiment on LN-229 (Glioblastoma); 0.0472 in [10]; 0.0322 in [11]; 0.0387 in [12]; -0.0062 in experiment [13]; 0.0444 in experiment [14]. Besides, the Bliss excess was -0.0366 in experiment [15] and 0.0283 in [16].

Turning to `COc1nnc2ccc(N3CCC(c4ccc(OCCN5CCN(C)C(=O)[C@H]5C)cc4)CC3)nn12` [AZD5153] + Cn1cnc2c(F)c(Nc3ccc(Br)cc3Cl)c(C(=O)NOCCO)cc21 [Selumetinib] (first compound max 1 µM, 7x7, partner max 10 µM), the Bliss excess is -0.0157 in experiment [1]; 0.0114 in [2]; 0.0717 in [3]; 0.0579 in experiment [4]; 0.033 in [5]; -0.0504 with SF268 (Low Grade Glioma). Besides, the Bliss excess in the experiment on GB-1 (Glioblastoma) was -0.035; in [6] it was -0.0452; in experiment [7] it was 0.0131; in experiment [8], -0.0728; with WM278 (Melanoma), -0.0471; in [9], 0.0918. The Bliss excess with LN-229 (Glioblastoma) is -0.0426; in experiment [10], -0.0326; in experiment [11], 0.032; in experiment [12] it was -0.134; in experiment [13], -0.0136; in experiment [14] it was 0.02. Further, the Bliss excess is -0.015 in experiment [15] and -0.0252 in experiment [16].

Regarding `Cc1c2c(nn1C)CSCc1cc(n(C)n1)CSc1cc(c3ccccc3c1)OCCCc1c(C(=O)O)n(C)c3c-2c(Cl)ccc13` [AZD5991] + C1CN(CCC1(C(=O)N[C@@H](CCO)C2=CC=C(C=C2)Cl)N)C3=NC=NC4=C3C=CN4 [Capivasertib] (first compound max 1 µM, 7x7, partner max 3 µM), the Bliss excess in experiment [1] was -0.0223; in [2], 0.027; in experiment [3], -0.0533; in [4], -0.0124; in experiment [5] it was 0.0419; with SF268 (Low Grade Glioma), -0.008. Also, the Bliss excess in the experiment with GB-1 (Glioblastoma) is -0.0365; in experiment [6], 0.0023; in [7] it was -0.0223; in experiment [8] it was 0.0013; in the experiment on WM278 (Melanoma) it was -0.0498; in [9] it was -0.0103. Moreover, the Bliss excess in the experiment on LN-229 (Glioblastoma) was 0.0178; in experiment [10] it was 0.032; in [11], 0.0306; in experiment [12], -0.0033; in [13], -0.0121; in experiment [14], 0.0312. Further, the values for the Bliss excess in [15] and in experiment [16] were 0.0213 and 0.0039, respectively.

Consider `Cc1c2c(nn1C)CSCc1cc(n(C)n1)CSc1cc(c3ccccc3c1)OCCCc1c(C(=O)O)n(C)c3c-2c(Cl)ccc13` [AZD5991] + C=CCn1c(=O)c2cnc(Nc3ccc(N4CCN(C)CC4)cc3)nc2n1-c1cccc(C(C)(C)O)n1 [AZD1775] (first compound max 1 µM, partner max 1 µM), for which the Bliss excess in experiment [1] was -0.114; in experiment [2], 0.0045; in [3], -0.0694; in experiment [4], 0.0041; in [5] it was -0.0162; in the experiment with SF268 (Low Grade Glioma), 0.0045. The Bliss excess is 0.0148 in the experiment with GB-1 (Glioblastoma); 0.0145 in experiment [6]; 0.0254 in experiment [7]; -0.008 in [8]; 0.0438 with WM278 (Melanoma); -0.0217 in experiment [9]. Besides, the Bliss excess in the experiment on LN-229 (Glioblastoma) is 0.0754; in experiment [10], -0.0212; in experiment [11], -0.058; in experiment [12], -0.0378; in experiment [13] it was -0.0119; in [14], 0.0001. Moreover, the Bliss excess in experiment [15] is -0.0016; in [16] it was -0.0319.

As for `Cc1c2c(nn1C)CSCc1cc(n(C)n1)CSc1cc(c3ccccc3c1)OCCCc1c(C(=O)O)n(C)c3c-2c(Cl)ccc13` [AZD5991] + CC1(C)CCC(CN2CCN(c3ccc(C(=O)NS(=O)(=O)c4ccc(NCC5CCOCC5)c([N+](=O)[O-])c4)c(Oc4cnc5[nH]ccc5c4)c3)CC2)=C(c2ccc(Cl)cc2)C1 [Venetoclax] (first compound max 1 µM, 7x7, partner max 1 µM), the Bliss excess in experiment [1] is 0.0963; in [2], -0.0225; in [3], -0.0873; in experiment [4] it was -0.0126; in experiment [5] it was 0.117; in the experiment on SF268 (Low Grade Glioma), -0.0096. Besides, the Bliss excess in the experiment with GB-1 (Glioblastoma) was -0.0257; in [6], -0.0207; in [7], -0.0255; in [8], -0.0251; with WM278 (Melanoma), -0.0393; in experiment [9], 0.0293. The Bliss excess in the experiment with LN-229 (Glioblastoma) is -0.0271; in experiment [10], 0.0206; in experiment [11], 0.0098; in experiment [12], 0.0977; in experiment [13], 0.0217; in experiment [14], 0.0028. For the same compound, the Bliss excess in experiment [15] is -0.0231; in [16], 0.0632.

Take `Cc1c2c(nn1C)CSCc1cc(n(C)n1)CSc1cc(c3ccccc3c1)OCCCc1c(C(=O)O)n(C)c3c-2c(Cl)ccc13` [AZD5991] + C[C@@H](Nc1cc(F)cc(F)c1)c1cc(C(=O)N(C)C)cc2c(=O)cc(N3CCOCC3)oc12 [AZD8186] (first compound max 1 µM, 7x7, partner max 3 µM): the Bliss excess in experiment [1] is 0.0426; in [2], 0.0185; in experiment [3] it was -0.0407; in experiment [4] it was -0.0188; in [5], 0.183; with SF268 (Low Grade Glioma), -0.0095. Besides, the Bliss excess in the experiment on GB-1 (Glioblastoma) is -0.0152; in [6], -0.0181; in [7], 0.0001; in experiment [8], 0.0208; in the experiment with WM278 (Melanoma) it was 0.0096; in experiment [9] it was 0.0056. Moreover, the Bliss excess in the experiment on LN-229 (Glioblastoma) is -0.0063; in experiment [10], 0.0126; in experiment [11], -0.013; in [12] it was -0.0379; in [13], -0.0104; in experiment [14] it was 0.0262. The values for the Bliss excess in experiment [15] and in [16] were 0.0315 and 0.0233, respectively.

Regarding `Cc1c2c(nn1C)CSCc1cc(n(C)n1)CSc1cc(c3ccccc3c1)OCCCc1c(C(=O)O)n(C)c3c-2c(Cl)ccc13` [AZD5991] + Cn1cnc2c(F)c(Nc3ccc(Br)cc3Cl)c(C(=O)NOCCO)cc21 [Selumetinib] (first compound max 1 µM, 7x7, partner max 3 µM), the Bliss excess in experiment [1] was -0.0227; in [2] it was 0.0226; in experiment [3], 0.0011; in [4], 0.034; in [5], 0.0241; in the experiment on SF268 (Low Grade Glioma), -0.0199. In addition, the Bliss excess with GB-1 (Glioblastoma) was -0.0299; in [6], -0.0284; in experiment [7], -0.0091; in experiment [8] it was 0.0053; in the experiment on WM278 (Melanoma) it was 0.0368; in experiment [9] it was -0.0063. For the same compound, the Bliss excess in the experiment on LN-229 (Glioblastoma) is 0.0485; in experiment [10], -0.0271; in experiment [11] it was -0.0435; in experiment [12] it was 0.0623; in experiment [13] it was 0.0231; in experiment [14], 0.0218. The Bliss excess in experiment [15] was 0.0722; in experiment [16], 0.
